Test system: low passage, clinical strains of HIV-1
Test: Anti-HIV activity in fresh human peripheral blood mononuclear cells
Format: cell-based
Settings: fresh human PBMC; varies from strain to strain
Procedure: In another experiment, the anti-HIV activity of Oligos 12, 32, and 41 was evaluated against a variety of low passage, clinical strains of HIV-1 in fresh human peripheral blood mononuclear cells. These strains include viruses obtained from pediatric patients attending the Children's Hospital University of Alabama at Birmingham as well as viruses representative of the various HIV-1 clades found throughout the world, shown below in TABLE 4.
Fresh human peripheral blood lymphocytes (PBL) were isolated from voluntary Red Cross donors, seronegative for HIV and HBV. Leukophoresed blood was diluted 1:1 with Dulbecco's phosphate buffered saline (PBS), layered over 14 ml of Ficoll-Hypaque density gradient in a 50 ml centrifuge tube. Tubes were then centrifuged for 30 minutes at 600×g. Banded PBLs were gently aspirated from the resulting interface and subsequently washed 2× with PBS by low speed centrifugation. After final wash, cells were enumerated by trypan blue exclusion and re-suspended at 1×10^7/ml in RPMI 1640 with 15% Fetal Bovine Serum (FBS), 2 mM L-glutamine, […] PHA-P and allowed to incubate for 48–72 hours at 37° C. After incubation, PBLs were centrifuged and reset in RPMI 1640 with 15% FBS, 2 mM L-glutamine, 100 U/ml penicillin, 100 μg/ml streptomycin, 10 μg/ml gentamycin, and 20 U/ml recombinant human IL-2. PBLs were maintained in this medium at a concentration of 1–2×10^6/ml with bi-weekly medium changes, until use in assay protocol. […]
In the standard PBL assay (MOI: 0.2), the assay was ended on day 7 following collection of cell free supernatant samples for reverse transcriptase activity assay. In the low MOI PBL assay (MOI: 0.02), supernatant samples were collected on day 6, day 11, and day 14 post-infection and analyzed for RT activity. […] Opti-Fluor O was added to each sample and incorporated radioactivity was quantified utilizing a liquid scintillation counter, (Wallac 1450 Microbetaplus, Gaithersburg, Md.).

Substance: Oligo 41: oligonucleotide having SEQ ID NO:6; sequence not printed, not listed in TABLE 2 (UCGCACCCATCTCTCTCCUUC; chemistry not given here)
- activity against low passage clinical T-tropic strains of HIV-1: active
